Where two headings read alike, the source gives them in different places.
How the values were obtained:
AChE [1] = molecular target: T1, AChE (Electrophorus electricus, UniProt O42275); test: Fluorescence spectral studies of AChE incubated with molecules; conditions: excitation 365 nm, control emission maxima […] nm, molecules at IC50 concentration, 10 min
T1 construct: purchased Sigma (St. Louis, MO, USA)
Description: The fluorescence intensities were recorded using 0.5 mgml^-1 protein concentration with an excitation wavelength of 365 nm and an emission wavelength of 400–700 nm with slit widths of 20 nm using MY14410002 fluorescence spectrophotometer (Agilent Technologies, USA) at 25°C. Protein solutions of 0.5 mgml^-1 were prepared in 10 mM PBS at pH 7.7. Scans were performed at room temperature using a 1 cm path length quartz cuvette with 1 s differential integration time at a scan rate of 600 nm min^-1. […] The subsequent changes in fluorescence were measured at this wavelength.
Fig 21 a) Intrinsic fluorescence spectra of the AChE incubated with molecules. […] Scans were performed at 37°C using a 1 cm path length quartz cuvette with 1 s differential integration time at a scan rate of 600 nm min^-1. The excitation wavelength was 365 nm and emission wavelength was in the range of 400–700 nm. b) Intrinsic fluorescence spectra of the AChE incubated with molecules. […] Scans were performed at 37° C using a 1 cm path length quartz cuvette with 1 s differential integration time at a scan rate of 600 nm min^-1. The excitation wavelength was 365 nm and the emission wavelength was in the range of 400–700 nm.

immobilized AChE [2] = molecular target: T2, immobilized AChE (Electrophorus electricus, UniProt O42275); test: biochemical; assay type: binding; conditions: for Kd / Ka1 / Kd1: 25°C
T2 construct: purchased Sigma (St. Louis, MO, USA)
Description: (§1) The protocol was followed with some modifications for enzyme immobilization, scouting and screening. SPR interactions were performed using a Biacore X100 optical biosensor (GE Healthcare Life Sciences, Bangalore, India) at 25°C. SPR analysis was carried out in PBS (200 mM, pH 7.7) from the analyte stock solutions, working solutions were diluted before passing on to the sensor surface. Data collection was done with the help of Biacore control software ver 2.0.2 Sets of experiments were carried out by monitoring change in the refractive index as a function of time under constant flow conditions. The relative amount of inhibitor bound to the AChE was determined by measuring the net increase in the refractive index over time compared to buffer as a control. During each run, there is an inline subtraction of the reference surface. Change is reported regarding response units (RU). The surface was washed with 5 cycles of running buffer (PBS) before next analytes.
(§2) As per pH scouting studies, AChE enzyme (100μg) was dissolved in 100 mM sodium acetate buffer pH 4.5 and was immobilized to the CM5 sensor chip by using the amine coupling method. The flow rate was kept constant during immobilization at 10 μlmin^-1, the surface of flow cell was activated by 1:1 mixture of 100 mM EDC and 100 mM NHS (both dissolved in water) for 7 min. AChE was injected for 7 min, and residual activated carboxymethyl groups were blocked on the sensor surface by 7 min injection of 1M ethanolamine, pH 8.5. In this particular study, flow cell 1 was blank immobilized (without protein) and used as a reference. Inline and double referencing was done for the buffer RU compensation.
(§3) Here the model describes this competitive situation and returns two sets of rate constants, one for each reaction taking into consideration two different analytes. The same buffer was used as running buffer. The constant flow rate was maintained throughout the kinetics (45 μlmin^-1), contact time and dissociation time was kept at 120 second (s). 10 mM glycine pH 3.0 for the time period of 30 s was used for regeneration. The experiments were carried at different concentrations of inhibitors.
(§4) The analysis of data was carried out with X100 evaluation software ver 2.0.2 and fitted to two state fit for individual molecules and for competitive experiments a heterogeneous analyte binding model.

AChE [3] = conditions: cited from earlier work; for IC50: read-out: IC50
AChE [4] = molecular target: T1, AChE; test: Far-UV circular dichroism of AChE with small molecules (secondary structure composition); conditions: single molecule; for Turns of AChE in presence of the molecule: AChE alone 0; for α helix of AChE in presence of the molecule: AChE alone 3.6±0.012; for Random of AChE in presence of the molecule: AChE alone 44.2±0.46; for β sheets of AChE in presence of the molecule: AChE alone 52.3±0.6
Description: Protein solutions 0.5 milligram per milliliter (mgml^-1) was prepared in 10 mM PBS at pH 7.7. Scans were performed at room temperature using 0.1 cm path length quartz cuvette with 8 s differential integration time at a scan rate of 100 nano meter per minute (nm min^-1). The CD spectrum of AChE enzyme individually and with different small molecules, also in combination was recorded. All spectra resulted from averaging three scans were corrected from the buffer blank. Results were expressed as molar ellipticity (°cm^2 dmol^-1) based on a mean amino acid residue weight (MRW) 110 Da for AChE. The molar ellipticity was determined as [θ obs] = {100 × (MRW) × θobs/cl}, where θ is the observed ellipticity in degrees at a given wavelength, c is the protein concentration in mgml^-1, and l is the path length in cm.
The relative percentages of the secondary structure elements were estimated in triplicates using Manager Suite software.

[5] = molecular target: T3, acetylcholinesterase from Electrophorus electricus (Electric eel) (Electrophorus electricus, UniProt O42275); test: Inhibition assay for acetylcholinesterase activity (modified Ellman, ATCI/DTNB, 412 nm); assay type: biochemical
T3 construct: purchased Sigma (St. Louis, MO, USA)
Description: The assay was performed with some modifications of Ellman et al (1961). […] The hydrolysis was monitored by the formation of yellow color (5-thio-2-nitrobenzoate anion) and the absorbance was measured at 412 nm by using spectrophotometer (UV-1800, Shimadzu, Japan).
The inhibitory activity assay was carried out with slight modifications. […] The inhibitory percentage of AChE was calculated as follows:
%inhibition = 100[A − B] − [C − D]/[A − B]
A is the OD without test substance, B is the OD without test substance and AChE, C is the OD with the test substance, D is the OD at 412 nm with the test substance and without AChE.
The relative percentage inhibition were estimated in triplicates and values were expressed as mean ± SEM (n = 3).

immobilized AChE [6] = molecular target: T2, immobilized AChE; test: biochemical; assay type: binding; conditions: for Kd: read-out: Molecule 1 KD
Description: as §1, §2, §3, §4
Likewise, competitive experiments between different pairs was run by mixing 1:1 ratio of molecules and was fit to heterogeneous analyte model were studied. These experiments are helpful for determining the kinetics of a small molecule analyte in competition with other. Response contributions from both analytes are taken into account by considering molecular weight and concentrations of analytes. For competition binding experiments, pairing was done based on substrate-inhibitor and inhibitor-inhibitor interactions. […] Finally, naturally occurring crocin was also tested due to reports in the literature as a brain tonic for the Alzheimer's.

[7] = system: AChE activity of the central nervous tissue of L.acuminata; conditions: 0.04 mM tannic acid; cited from earlier work
[8] = affinity fit, read-out: KD Affinity
[9] = pair tannic acid (molecule 1) and ATCI (molecule 2), 1:1

T2 sequence (O42275 24-633): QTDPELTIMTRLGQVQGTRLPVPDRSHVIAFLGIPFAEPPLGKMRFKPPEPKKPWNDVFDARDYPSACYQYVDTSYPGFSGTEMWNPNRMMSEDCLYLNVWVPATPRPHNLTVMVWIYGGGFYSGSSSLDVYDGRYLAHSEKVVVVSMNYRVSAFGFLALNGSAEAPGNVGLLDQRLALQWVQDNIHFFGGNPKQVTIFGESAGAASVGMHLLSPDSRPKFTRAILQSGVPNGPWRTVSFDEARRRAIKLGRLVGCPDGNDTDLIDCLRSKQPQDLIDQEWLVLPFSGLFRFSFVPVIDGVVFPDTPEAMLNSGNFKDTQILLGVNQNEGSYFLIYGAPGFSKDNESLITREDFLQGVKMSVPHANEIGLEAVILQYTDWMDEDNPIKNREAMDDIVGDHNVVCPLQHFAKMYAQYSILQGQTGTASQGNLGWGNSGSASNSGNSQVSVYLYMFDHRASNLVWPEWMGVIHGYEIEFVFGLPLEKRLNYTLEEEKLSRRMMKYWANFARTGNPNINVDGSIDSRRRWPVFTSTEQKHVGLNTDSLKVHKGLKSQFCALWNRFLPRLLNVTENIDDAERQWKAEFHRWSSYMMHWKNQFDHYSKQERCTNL
T1 sequence (O42275 24-633): as above
T3 sequence (O42275 24-633): as above

With Oc1cccc(O)c1O [Pyrogallol, pyrogallol] the “change in fluorescence emission of AChE compared to control enzyme” value (AChE [1]) was “quenching”, the Ka2 (immobilized AChE [2]) was 0.01979±3.7×10^−4 1/s and the Kd2 (immobilized AChE [2]) was 0.002793±3.2×10^−5 1/s. The Kd (immobilized AChE [2]; [8]) was 119 µM, the Ka1 (immobilized AChE [2]; two-state model) was 200.1 ± 3.3 M⁻¹ s⁻¹ and the Kd1 (immobilized AChE [2]; two-state model) was 0.05082 ± 0.0015 s⁻¹. For the same molecule, the Kd (immobilized AChE [2]; two-state model, read-out: KD Kinetics) was 31.4 µM, the IC50 (AChE [3]) was 10.2 µM and the “Turns of AChE in presence of the molecule” value (AChE [4]) was 0%. For the same molecule, the “α helix of AChE in presence of the molecule” value (AChE [4]) was 0%, the “Random of AChE in presence of the molecule” value (AChE [4]) was 49.2±0.68% and the “β sheets of AChE in presence of the molecule” value (AChE [4]) was 50.8±0.73%. It also gave an IC50 [5] of 3800 ± 100 µM.
In the case of O=C(O[C@@H]1Cc2c(O)cc(O)cc2O[C@@H]1c1cc(O)c(O)c(O)c1)c1cc(O)c(O)c(O)c1 [epigallocatechin gallate], the IC50 (AChE [3]; literature value, no reference printed behind it) is listed as 16.8 µM.
In the case of CC1=C(C=O)C(C)(C)CC=C1 [safranal], the “concentration showing maximum inhibition of AChE” value (AChE [3]) is given as 21.09 ± 0.17 µM.
In the case of tannic acid, the “Molecule 1 ka1” value (immobilized AChE [6]) is reported as 231.1 ± 3.3 M⁻¹ s⁻¹, the “Molecule 1 kd1” value (immobilized AChE [6]) is reported as 2.685e-05 ± 2.9e-08 s⁻¹ and the “Molecule 1 ka1” value (immobilized AChE [6]; [9]) is reported as 1.687e-05 ± 3.7e+06 M⁻¹ s⁻¹. The “Molecule 1 kd1” value (immobilized AChE [6]; [9]) was 0.01266 ± 0.028 s⁻¹, the Kd (immobilized AChE [6]; [9]) was 0.0751 µM and the Kd (immobilized AChE [6]) was 0.116 µM. The “change in fluorescence emission of AChE compared to control enzyme” value (AChE [1]) was “redshift”, the Ka2 (immobilized AChE [2]) was 0.1039±2.2×10^−4 1/s and the Kd (immobilized AChE [2]; [8]) was 11.4 µM. The Ka1 (immobilized AChE [2]; two-state model) was 1400 ± 47 M⁻¹ s⁻¹, the Kd1 (immobilized AChE [2]; two-state model) was 0.03423 ± 0.017 s⁻¹ and the “reduced AChE activity” value [7] was 37%. The “Turns of AChE in presence of the molecule” value (AChE [4]) was 14.8±0.08%, the “α helix of AChE in presence of the molecule” value (AChE [4]) was 5.1±0.039% and the “Random of AChE in presence of the molecule” value (AChE [4]) was 49.5±0.70%. For the same molecule, the “β sheets of AChE in presence of the molecule” value (AChE [4]) was 30.6±0.19% and the IC50 ([5]; […] ATCI, PBS 200 mM pH 7.7, 37°C, mean ± SEM (n = 3), read-out: IC50) was 27 ± 2 µM.
